From patent US6833353B1, “Use of immunosuppressants for MMP mediated diseases” (Fujisawa Pharmaceutical Co., Ltd., priority 1998, dated 2004)
Marks after values point to notes of the source that are not given here.

Experiments:
Assay type in all cases: in vivo, Lewis rats
TNF-α = TNF-α level in granulomatous tissue extract (ELISA), implant model; conditions: day 14
Method: (§1) Bone and excess tissue overlying the cartilage was removed under sterile conditions, in an airflow hood. The septum was washed in 70% ethanol before the cartilage was cut to a weight of 40×2mg. The cartilages were wrapped tightly in sterile cotton squares and soaked in 0.1 ml of a 10 mg/ml homogenized suspension of heat-killed Mycobacterium tuberculosis H37RA (Difco) in saline. Eight cartilages were stored in −20° C., these were to measure the levels of collagen in non-implanted cartilages.
(§2) Eight weeks old female Lewis rats were anaesthetized using halothane. The stomach area was shaved and swabbed with ethanol. […]
(§3) The granulomatous tissues were homogenized in 1 ml of 50 mM Tris, pH 7.5 containing 5 mM CaCl2, 0.1% Triton X-100 and 0.02% NaN3) After centrifugation of the extract at 15000 rpm for 10 min to remove debris, the supernatant was assayed for collagenolytic activity, gelatinolytic activity, tumor necrosis factor-α (TNF-α) level and Interferon-γ (IFN-γ) level. Collagenolytic and gelatinolytic activities in the extracts were measured using commercial assay kits (YAGAI, Japan). Cytokines levels were also measured using ELISA kits (Cosmo Bio, Japan). The protein contents in the extracts was determined using the method of Lowry.
(§4) Data is expressed as mean±SEM. The significance of differences was determined by Dunnett's multiple comparison test (*p<0.05, **p<0.01).

IFN-γ = IFN-γ level in granulomatous tissue extract (ELISA), implant model; conditions: day 14
Method: as §1, §2, §3, §4

gelatinase = assay: Gelatinolytic activity in granulomatous tissue extract, implant model; conditions: day 14
Method: as §1, §2, §3, §4

collagenase = assay: Collagenolytic activity in granulomatous tissue extract, implant model; conditions: day 14
Method: as §1, §2, §3, §4

cartilage degradation = assay: Cartilage degradation in cotton-wrapped cartilage implant model (hydroxyproline content of implanted cartilage)

C=CC[C@@H]1/C=C(\C)C[C@H](C)C[C@H](OC)[C@H]2O[C@@](O)(C(=O)C(=O)N3CCCC[C@H]3C(=O)O[C@H](/C(C)=C/[C@@H]3CC[C@@H](O)[C@H](OC)C3)[C@H](C)[C@@H](O)CC1=O)[C@H](C)C[C@@H]2OC [FK506, 17-allyl-1,14-dihydroxy-12-[2-(4-hydroxy-3-methoxycyclohexyl)-1-methylvinyl]-23,25-dimethoxy-13,19,21,27-tetramethyl-11,28-dioxa-4-azatricyclo[22.3.1.0^4,9] octacos-18-ene-2,3,10,16-tetraone]
inhibition (%) TNF-α (TNF-α; 1.0 mg/kg po once daily): 43.9** % | inhibition (%) TNF-α (TNF-α; 3.2 mg/kg po once daily): 56.6** % | inhibition (%) IFN-γ (IFN-γ; 1.0 mg/kg po once daily): 58.1% | inhibition (%) IFN-γ (IFN-γ; 3.2 mg/kg po once daily): 73.4* % | inhibition (%) gelatinase (gelatinase; 1.0 mg/kg po once daily): 67.9* % | inhibition (%) gelatinase (gelatinase; 3.2 mg/kg po once daily): 82.1** % | inhibition (%) collagenase (collagenase; 1.0 mg/kg po once daily): 7.7% | inhibition (%) collagenase (collagenase; 3.2 mg/kg po once daily): 29.8% | Recovery (%) of Hydroxyproline (cartilage degradation; 3.2 mg/kg po once daily, 14 days, implanted bovine nasal cartilage, rat): 61.9** % | inhibition of the decrease of hydroxyproline contents in cartilage (cartilage degradation; 3.2 mg/kg po, uid, rat implant model): 62%
